# Measurements taken from publication PMC12133102, “Deciphering the Physical Binding Mechanism of Enzyme–Photosensitizer Facilitates Catalysis-Augmented Photodynamic Therapy” (Research, 2025).
# Target: T1, HSA (human serum albumin) (Homo sapiens, UniProt P02768)
# T1 construct: gene ALB; commercial HSA (Shanghai Yuanye); amine-coupled to CM5 chip
# Test: SPR (Biacore T200, immobilized protein on CM5)
# Type: binding
# T1 sequence (P02768 25-609): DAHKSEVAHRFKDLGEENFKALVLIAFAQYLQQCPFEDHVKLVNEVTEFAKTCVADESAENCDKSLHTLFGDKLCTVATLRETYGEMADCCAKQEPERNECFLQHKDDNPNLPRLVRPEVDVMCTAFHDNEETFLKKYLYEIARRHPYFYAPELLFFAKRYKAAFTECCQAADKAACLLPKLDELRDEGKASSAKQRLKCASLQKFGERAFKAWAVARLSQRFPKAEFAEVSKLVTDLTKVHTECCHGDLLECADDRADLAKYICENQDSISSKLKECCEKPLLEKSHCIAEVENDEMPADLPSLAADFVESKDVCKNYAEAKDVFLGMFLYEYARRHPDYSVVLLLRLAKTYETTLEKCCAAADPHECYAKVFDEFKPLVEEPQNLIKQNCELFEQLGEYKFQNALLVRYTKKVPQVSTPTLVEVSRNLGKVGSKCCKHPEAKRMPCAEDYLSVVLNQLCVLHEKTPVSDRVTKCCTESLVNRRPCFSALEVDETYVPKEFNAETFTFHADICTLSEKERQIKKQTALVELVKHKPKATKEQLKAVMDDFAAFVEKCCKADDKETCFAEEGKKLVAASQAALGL
compound,measurement,value
C=Cc1c(C)c2cc3nc(c(CC(=O)O)c4[nH]c(cc5nc(cc1[nH]2)C(C)=C5CC)c(C)c4C(=O)O)[C@@H](CCC(=O)O)[C@@H]3C [Ce6],Kd,2120 nM
